One may read the LD50 as the dose expected to kill half of the subjects tested. Low values mean greater toxicity, high ones lower toxicity.

Consider three compounds from patent US5736380A, “Maltose-trehalose converting enzyme, and preparation and uses thereof” (Kabushiki Kaisha Hayashibara Seibutsu Kagaku Kenkyujo, priority 1993, dated 1998).

Data set [1] has as its target enzyme from Pseudomonas putida H262 (Pseudomonas putida, UniProt Q88FN0). Put plainly: Action on saccharides (TLC), 35° C. Type of data set: biochemical. How it is done:
A variety of saccharides were tested for determining whether they could be used as a substrate for the present enzyme.
(§1) The solutions were respectively mixed with 2 units/g substrate, d.s.b., of a maltose-trehalose converting enzyme obtained by the method in Experiment 2, adjusted their substrate concentrations to 5 w/v %, and subjected to enzymatic reaction at 20° C. and pH 7.0 for 24 hours. The solutions before and after their enzymatic reactions were subjected to thin layer chromatography (TLC) using "[…] 60 (20×20 cm)", an aluminum plate for TLC commercialized by Merck & Co., Inc., Rahway, USA, for determining whether the present enzyme acts on the saccharides. The resultant products were developed once on the plates by using a developing solvent system of 1-butanol, pyridine and water (=6:4:1 by volume). The products on the plates were colored by spraying thereto a 20 v/v % sulfuric acid in methanol, and heating the plates at 110° C. for 10 min.
A variety of saccharides were tested for determining whether they could be used as a substrate for the present enzyme from Pseudomonas putida H262 obtained in Experiment 10 in accordance with the method in Experiment 4 except for setting the reaction temperature to 35° C. Similarly as the enzyme from Pseudomonas putida H262, the enzyme from Pimelobacter sp.

The target of data set [2] is T1, maltose-trehalose converting enzyme derived from Pimelobacter sp. R48 (Pimelobacter sp., UniProt P72235).
T1 construct: The culture obtained in Experiment 1 was centrifuged to obtain an about 0.5 kg wet cells; endogenous in cells; host or cells: Pimelobacter sp; R48 (FERM BP-4315), enzyme purified from the disrupted wild-type cells
T1 sequence (P72235 1-573): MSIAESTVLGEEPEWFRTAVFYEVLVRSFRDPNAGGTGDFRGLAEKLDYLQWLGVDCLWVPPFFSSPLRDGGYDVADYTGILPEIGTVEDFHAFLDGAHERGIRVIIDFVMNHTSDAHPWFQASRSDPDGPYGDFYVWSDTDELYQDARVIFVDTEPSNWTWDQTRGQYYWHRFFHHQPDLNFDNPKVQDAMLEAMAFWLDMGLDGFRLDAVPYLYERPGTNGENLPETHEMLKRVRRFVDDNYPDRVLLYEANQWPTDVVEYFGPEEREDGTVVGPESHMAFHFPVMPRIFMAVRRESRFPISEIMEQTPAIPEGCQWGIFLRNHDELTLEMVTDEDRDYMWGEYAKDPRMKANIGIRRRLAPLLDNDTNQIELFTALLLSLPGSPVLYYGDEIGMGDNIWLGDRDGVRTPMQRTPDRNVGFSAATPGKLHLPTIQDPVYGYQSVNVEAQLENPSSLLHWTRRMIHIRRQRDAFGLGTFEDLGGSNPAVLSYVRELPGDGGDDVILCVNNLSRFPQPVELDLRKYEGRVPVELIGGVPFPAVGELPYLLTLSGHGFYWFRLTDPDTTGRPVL
Put plainly: Action on saccharides (TLC before and after enzymatic reaction). Type of data set: biochemical. The conditions noted are these: 20° C., pH 7.0, 24 hours. The procedure: A variety of saccharides were tested for determining whether they could be used as a substrate for the present enzyme. Glucose, maltose, maltotriose,maltotetraose, maltopentaose, maltohexaose, maltoheptaose, soluble starch, amylose having an average polymerization degree of 18, trehalose, neotrehalose, gentiobiose, kojibiose, isomaltose, cellobiose, maltitol, sucrose, maltulose, turanose, paratinose, trehalulose or lactose was prepared into a solution. A solution containing glucose and the equal amount of α-glucose 1-phosphate or β-glucose 1-phosphate was prepared.
as §1

For data set [3], the system named is Partially purified enzymes derived from known microorganisms of the genus Thermus. Kind of data set: Action on saccharides, partially purified enzymes. In kind it is biochemical. The settings on record: method of Experiment 18. The procedure:
A variety of saccharides were tested for determining whether they could be used as a substrate for the present enzyme from Thermus aquaticus (ATCC 33923), obtained in accordance with the method in Experiment 4 except for setting the reaction temperature to 50° C. Similarly as the enzymes from Pimelobacter sp.
Among conventional microorganisms, a microorganism which had been confirmed its ability to form the present maltose-trehalose converting enzyme was incubated in an Erlenmeyer flask for 48 hours in accordance with Experiment 15. After analyzed the enzyme activity, the resultant culture was subjected to a cell disrupting apparatus in accordance with Experiment 16. From the resultant mixture a supernatant was prepared and dialyzed to obtain a partially purified enzyme, followed by analyzing the property in accordance with Experiment 17.
Partially purified enzymes derived from known microorganisms of the genus Thermus as shown in Table 12 were studied on their action on a variety of saccharides in accordance with the method in Experiment 18.

In a further data set the test system is mice. Put plainly: Acute toxicity test, oral. In kind it is in vivo. The settings on record: highest level of dose administrable. The procedure:
(§2) By using mice, the high-purity trehalose specimen with a purity of 99.8%, d.s.b., prepared in Experiment 8 was orally administered to the mice for its acute toxicity test. […] Though it is not so accurate, the LD50 was determined to be 50 g/kg or higher.

A short description of data set [4]: Acute toxicity test, oral. Type of data set: in vivo. The settings on record: mouse, in vivo, mice, not so accurate. How it is done:
as §2

Data set [5] can be described thus: Physicochemical property of trehalose: solubility in water. The settings on record: at 25° C., for anhydrous trehalose. The procedure:
A high-purity trehalose specimen prepared by the method in Experiment 8 was studied on its physicochemical property. As a result, the melting point was determined as 97.0° C., the specific rotation was [α]D^20 +199° […].

Data set [6] in a line: Utilization test in vivo (blood sugar- and insulin-levels after oral administration). The settings on record: 30 g as 20 w/v % aqueous solution, orally, healthy male volunteers. The procedure:
In accordance with the method as reported by H. Atsuji et al. in Journal of Clinical Nutrition, Vol.41, No.2, pp.200-208 (1972), 30 g of the high-purity trehalose specimen with a purity of 99.8%, d.s.b., in Experiment 8 was prepared into a 20 w/v % aqueous solution which was then orally administered to 3 healthy male volunteers, and their bloods were sampled at prescribed time intervals, followed by the measurements of the blood sugar- and insulin-levels. As a control glucose was used. […] Thus, the present trehalose and saccharide composition containing the same are suitably used as an energy-supplementing saccharide.

Chain of enzyme from Pseudomonas putida H262 (Q88FN0 entry or part of it): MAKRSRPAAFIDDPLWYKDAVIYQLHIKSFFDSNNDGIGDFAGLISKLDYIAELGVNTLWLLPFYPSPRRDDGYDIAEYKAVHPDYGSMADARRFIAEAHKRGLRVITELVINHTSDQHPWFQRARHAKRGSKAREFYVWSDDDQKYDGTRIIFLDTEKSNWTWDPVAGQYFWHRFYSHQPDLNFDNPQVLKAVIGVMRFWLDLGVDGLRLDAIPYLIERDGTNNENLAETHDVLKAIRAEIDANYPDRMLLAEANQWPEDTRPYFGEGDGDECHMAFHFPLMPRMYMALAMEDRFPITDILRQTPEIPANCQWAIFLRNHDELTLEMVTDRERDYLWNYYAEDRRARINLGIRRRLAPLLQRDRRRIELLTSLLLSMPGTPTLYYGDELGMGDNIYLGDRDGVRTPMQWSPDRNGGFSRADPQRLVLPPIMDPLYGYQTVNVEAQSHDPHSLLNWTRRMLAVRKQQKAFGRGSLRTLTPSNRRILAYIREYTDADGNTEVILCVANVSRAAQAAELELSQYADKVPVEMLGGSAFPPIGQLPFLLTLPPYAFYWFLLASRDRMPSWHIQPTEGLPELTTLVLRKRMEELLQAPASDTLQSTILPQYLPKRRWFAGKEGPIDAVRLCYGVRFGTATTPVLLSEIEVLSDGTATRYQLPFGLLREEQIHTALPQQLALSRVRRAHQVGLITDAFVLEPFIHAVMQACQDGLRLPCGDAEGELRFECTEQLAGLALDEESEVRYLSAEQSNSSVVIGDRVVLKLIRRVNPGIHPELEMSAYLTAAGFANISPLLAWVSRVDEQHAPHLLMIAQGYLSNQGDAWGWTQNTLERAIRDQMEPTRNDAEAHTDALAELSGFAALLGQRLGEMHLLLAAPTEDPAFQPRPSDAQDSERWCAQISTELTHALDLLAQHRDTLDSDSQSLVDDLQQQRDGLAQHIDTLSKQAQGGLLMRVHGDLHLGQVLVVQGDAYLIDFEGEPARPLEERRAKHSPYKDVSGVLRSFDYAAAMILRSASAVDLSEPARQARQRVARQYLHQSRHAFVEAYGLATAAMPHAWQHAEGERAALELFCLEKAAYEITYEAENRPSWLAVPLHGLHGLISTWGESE

With `OC[C@H]1O[C@H](O[C@H]2[C@H](O)[C@@H](O)[C@H](O)O[C@@H]2CO)[C@H](O)[C@@H](O)[C@@H]1O` [Maltose], the “action of enzyme on saccharide” value is on record as “specifically acted on” in data set [1], “only acts on” in data set [2] and “specifically acted on” in data set [3]. Also, the Action of enzyme entry in data set [2] (2 units/g substrate, substrate 5 w/v %) is on record as “+ +”.

For the compound `OC[C@H]1O[C@H](O[C@H]2O[C@H](CO)[C@@H](O)[C@H](O)[C@H]2O)[C@H](O)[C@@H](O)[C@@H]1O` [Trehalose], the “action of enzyme on saccharide” value is given as “specifically acted on” in data set [1], “only acts on” in data set [2] and “specifically acted on” in data set [3].

For `OC[C@H]1O[C@H](O[C@H]2O[C@H](CO)[C@@H](O)[C@H](O)[C@H]2O)[C@H](O)[C@@H](O)[C@@H]1O` [high-purity trehalose specimen, trehalose], in the data set with mice, the mortality entry is reported as “no mouse died”. In data set [4], this compound came in with an LD50 of no less than 50000 mg/kg. The solubility in water in data set [5] came out at 77.0 g. In data set [6], the “blood sugar- and insulin-levels compared with glucose control” value is recorded as “behaved similarly as glucose”; the “time of the maximum of blood sugar-level after the administration” value was in the range of 0.5 to 1 h; the “time of the maximum of insulin-level after the administration” value was in the range of 0.5 to 1 h.
